We go through 23 compounds from patent US20230059136A1, “THE COMPOUNDS AND COMPOSITIONS FOR TREATING CONDITIONS ASSOCIATED WITH NLRP ACTIVITY” (Novartis AG, priority 2018, published 2023).

The structures appear in SMILES notation. A value given as a limit tells only on which side of the number the result lay.

One experiment has as its system IL-1β production in PMA-differentiated THP-1 cells. Kind of experiment: IL-1β production in PMA-differentiated THP-1 cells stimulated with gramicidin (hTHP-1 assay containing 2% fetal bovine serum). Type of experiment: cell-based, human. To be noted: Homo sapiens, THP-1, Table B1; 2% fetal bovine serum; cells printed as numeric bound; read-out: hTHP-1 IC50 (Average IC50 of compounds in hTHP-1 assay). In short, it runs like this:
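THP-1 cells were differentiated with PMA 20 ng/ml for 16-18 h, then plated at 50,000 cells/well in RPMI with 2% FBS. They were preincubated 1 h with compound (100–0.0017 μM final, 0.37% DMSO), then stimulated with gramicidin 5 μM for 2 h. Supernatant IL-1β was measured by HTRF.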
On to `CC(C)c1cc(C(=O)CC2CCCCC2)cc(C(C)C)c1CC(=O)N=S(N)(=O)c1cc(C(C)(C)O)n(-c2ccccc2)n1` (single isomer, unassigned) [Example 286, (S) or (R)-N-(amino (5-(2-hydroxypropan-2-yl)-1-phenyl-1H-pyrazol-3-yl)(oxo)-λ^6-sulfaneylidene)-2-(4-(2-cyclohexylacetyl)-2,6-diisopropylphenyl) acetamide], for which the IC50 was more than 30 µM.
For the compound `CC(C)c1cc2c(c(C(C)C)c1CC(=O)N=S(N)(=O)c1ccn(C(F)F)n1)COC2` (single isomer, unassigned) [Example 320, (S) or (R)-N-(amino(1-(difluoromethyl)-1H-pyrazol-3-yl)(oxo)-λ^6-sulfaneylidene)-2-(4,6-diisopropyl-1,3-dihydroisobenzofuran-5-yl)acetamide], the IC50 was more than 30 µM.

The experiment is the same for the next values; noted with them: Homo sapiens, THP-1, Table B1; 2% fetal bovine serum; class symbols; read-out: hTHP-1 IC50 (Average IC50 of compounds in hTHP-1 assay).
As to `CC(C)(O)c1ncc(S(N)(=O)=NC(=O)Cc2c3c(cc4c2CC4)CCC3)s1` (centres unmarked) [Example 222, N-(amino(2-(2-hydroxypropan-2-yl)thiazol-5-yl)(oxo)-λ^6-sulfaneylidene)-2-(2,4,5,6-tetrahydro-1H-cyclobuta[f]inden-3-yl)acetamide], the IC50 was in the range of 1 to 5 µM.
With `CC(C)c1cc(C#CC2CCCC2)cc(C(C)C)c1CC(=O)N=S(N)(=O)c1cc(C(C)(C)O)c(-c2ccccc2)s1` (centres unmarked) [Example 240, N-(amino(4-(2-hydroxypropan-2-yl)-5-phenylthiophen-2-yl)(oxo)-λ^6-sulfaneylidene)-2-(4-(cyclopentylethynyl)-2,6-diisopropylphenyl)acetamide], the IC50 fell in the range of 5 to 30 µM.
Still for that read-out and setting: for `CCc1cc2c(c(C(C)C)c1CC(=O)N=S(N)(=O)c1cnc(C(C)(C)O)s1)COC2` (single isomer, unassigned) [Example 291, (R) or (S)-N-(amino(2-(2-hydroxypropan-2-yl)thiazol-5-yl)(oxo)-λ^6-sulfaneylidene)-2-(6-ethyl-4-isopropyl-1,3-dihydroisobenzofuran-5-yl)acetamide] the value was 5 to 30 µM; for `CC(C)c1cc(C#CC2CCCCC2)cc(C(C)C)c1CC(=O)N=S(N)(=O)c1cc(C(C)(C)O)n(-c2ccccc2)n1` (single isomer, unassigned) [Example 279, (R) or (S)-N-(amino(5-(2-hydroxypropan-2-yl)-1-phenyl-1H-pyrazol-3-yl)(oxo)-λ^6-sulfaneylidene)-2-(4-(cyclohexylethynyl)-2,6-diisopropylphenyl) acetamide], 1 to 5 µM.
Still for that read-out and setting: for `CC(C)c1cc2c(c(C(C)C)c1CC(=O)N=S(N)(=O)c1cccc(C(C)(C)O)c1)COC2` (single isomer, unassigned) [Example 303, (R) or (S)-N-(amino(3-(2-hydroxypropan-2-yl)phenyl)(oxo)-λ^6-sulfaneylidene)-2-(4,6-diisopropyl-1,3-dihydroisobenzofuran-5-yl)acetamide] the value was 1 to 5 µM.
Still for that read-out and setting: the value for `CC(C)c1cc2c(c(C(C)C)c1CC(=O)N=S(N)(=O)c1ccc(C(C)(C)O)cc1)COC2` (single isomer, unassigned) [Example 301, (R) or (S)-N-(amino(4-(2-hydroxypropan-2-yl)phenyl)(oxo)-λ^6-sulfaneylidene)-2-(4,6-diisopropyl-1,3-dihydroisobenzofuran-5-yl)acetamide] was 1 to 5 µM; that for `CC(C)(O)c1ncc(S(N)(=O)=NC(=O)Cc2c(C3CC3)cc(F)cc2C(F)(F)F)s1` (centres unmarked) [Example 98, N-(amino(2-(2-hydroxypropan-2-yl)thiazol-5-yl)(oxo)-λ^6-sulfaneylidene)-2-(2-cyclopropyl-4-fluoro-6-(trifluoromethyl)phenyl)acetamide] was 5 to 30 µM.
As to `CC(C)c1cc(CCC2CCOCC2)cc(C(C)C)c1CC(=O)N=S(N)(=O)c1cc(C(C)(C)O)n(-c2ccccc2)n1` (single isomer, unassigned) [Example 234, (R) or (S)—N-(amino(5-(2-hydroxypropan-2-yl)-1-phenyl-1H-pyrazol-3-yl)(oxo)-λ^6-sulfaneylidene)-2-(2,6-diisopropyl-4-(2-(tetrahydro-2H-pyran-4-yl)ethyl)phenyl)acetamide], the IC50 was in the range of 5 to 30 µM.
Still for that read-out and setting: for `COCc1cc(C(C)C)c(CC(=O)N=S(N)(=O)c2ncc(C(C)(C)O)s2)c(C(C)C)n1` (single isomer, unassigned) [Example 274, (R) or (S)-N-(amino (5-(2-hydroxypropan-2-yl)thiazol-2-yl)(oxo)-λ^6-sulfaneylidene)-2-(2,4-diisopropyl-6-(methoxymethyl)pyridin-3-yl)acetamide] the value was 1 to 5 µM; for `CC(C)c1cc(COC2CCCC2)cc(C(C)C)c1CC(=O)N=S(N)(=O)c1cc(C(C)(C)O)n(-c2ccc(F)cc2)n1` (centres unmarked) [Example 241, N-(amino(1-(4-fluorophenyl)-5-(2-hydroxypropan-2-yl)-1H-pyrazol-3-yl)(oxo)-λ^6-sulfaneylidene)-2-(4-((cyclopentyloxy)methyl)-2,6-diisopropylphenyl)acetamide], 5 to 30 µM; for `CC(C)c1cc(F)cc(C(C)C)c1CC(=O)N=S(N)(=O)c1ccc(C(C)(C)O)cc1` (centres unmarked) [Example 1, 2-(4-Fluoro-2,6-diisopropylphenyl)-N-(4-(2-hydroxypropan-2-yl)phenylsulfonimidoyl)acetamide], 1 to 5 µM.

The same experiment, now with this note: Homo sapiens, THP-1, Table B2; 2% fetal bovine serum; cells printed as numeric bound; read-out: hTHP-1 IC50 (Average IC50 of compounds in hTHP-1 assay).
As for `CC(C)c1ncnc(C(C)C)c1CC(=O)N=S(N)(=O)c1cnc(C(C)(C)O)s1` (centres unmarked) [Example 392, N-(amino(2-(2-hydroxypropan-2-yl)thiazol-5-yl)(oxo)-λ^6-sulfaneylidene)-2-(4,6-diisopropylpyrimidin-5-yl)acetamide], the IC50 is more than 30 µM.

The experiment is the same for the next values; noted with them: Homo sapiens, THP-1, Table B2; 2% fetal bovine serum; class symbols; read-out: hTHP-1 IC50 (Average IC50 of compounds in hTHP-1 assay).
Consider `COc1ccc(C(C)(C)O)cc1[S@@](=O)(=NC(=O)Cc1c(C(C)C)cc(C#N)cc1C(C)C)NC#N` [Example 378, (R)-N-(cyanamido(5-(2-hydroxypropan-2-yl)-2-methoxyphenyl)(oxo)-λ^6-sylfaneylidene)-2-(4-cyano-2,6-diisopropylphenyl)acetamide], for which the IC50 was in the range of 5 to 30 µM.
`COc1ccc(C(C)(C)O)cc1S(N)(=O)=NC(=O)Cc1c(C(C)C)cc(C#N)cc1C(C)C` (racemic) [Example 387, (R) and (S)—N-(amino(5-(2-hydroxypropan-2-yl)-2-methoxyphenyl)(oxo)-λ^6-sulfaneylidene)-2-(4-cyano-2,6-diisopropylphenyl)acetamide]: the IC50 fell in the range of 5 to 30 µM.
The same measure, in the same setting: for `CC(C)c1cc(F)cc(C(C)C)c1CC(=O)N=[S@@](=O)(NC#N)c1sc(C(C)(C)O)nc1CO` [Example 368, (R)-N-(cyanamido(4-(hydroxymethyl)-2-(2-hydroxypropan-2-yl)thiazol-5-yl)(oxo)-λ^6-sulfaneylidene)-2-(4-fluoro-2,6-diisopropylphenyl)acetamide] the value was 0.04 to 0.2 µM; for `COc1cc(-c2cccc(C(C)C)c2CC(=O)N=S(=O)(NC#N)c2cnc(C(C)(O)CO)s2)ccn1` (stereo in doubt) [Example 367, N-(cyanamido(2-((S)-1,2-dihydroxypropan-2-yl)thiazol-5-yl)(oxo)-λ^6-sulfaneylidene)-2-(2-isopropyl-6-(2-methoxypyridin-4-yl)phenyl)acetamide], 1 to 5 µM.

Staying with this experiment, now noted: Table B1; 2% fetal bovine serum; class symbols; read-out: hTHP-1 IC50 (Average IC50 of compounds in hTHP-1 assay).
In the case of `CC(C)c1cc(-c2ccc(Cl)c(Cl)c2)cc(C(C)C)c1CC(=O)N=S(N)(=O)c1ncc(C(C)(C)O)s1` (single isomer, unassigned) [Example 169, (S) or (R)-N-(amino(5-(2-hydroxypropan-2-yl)thiazol-2-yl)(oxo)-λ^6-sulfaneylidene)-2-(3′,4′-dichloro-3,5-diisopropyl-[1,1′-biphenyl]-4-yl)acetamide], the IC50 lay in the range of 1 to 5 µM.
Same read-out and setting: the value for `CC(C)c1cc(-c2ccc3c(c2)COCC3)cc(C(C)C)c1CC(=O)N=S(N)(=O)c1cnc(C(C)(C)O)s1` (single isomer, unassigned) [Example 171, (R) or (S)-N-(amino(2-(2-hydroxypropan-2-yl)thiazol-5-yl)(oxo)-λ^6-sulfaneylidene)-2-(4-(isochroman-7-yl)-2,6-diisopropylphenyl) acetamide] was 0.2 to 1 µM.
The same measure, in the same setting: for `CC(C)c1cc(C#N)c(F)c(C(C)C)c1CC(=O)N=S(N)(=O)c1cc(C(C)(C)O)n(-c2ccccc2)n1` (single isomer, unassigned) [Example 275, (R) or (S)-N-(amino (5-(2-hydroxypropan-2-yl)-1-phenyl-1H-pyrazol-3-yl)(oxo)-λ^6-sulfaneylidene)-2-(4-cyano-3-fluoro-2,6-diisopropylphenyl) acetamide] the value was 0.2 to 1 µM; for `CC(C)c1cc(-c2ccc3ccccc3c2)cc(C(C)C)c1CC(=O)N=S(N)(=O)c1cnc(C(C)(C)O)s1` (single isomer, unassigned) [Example 164, (S) or (R)-N-(amino(2-(2-hydroxypropan-2-yl)thiazol-5-yl)(oxo)-λ^6-sulfaneylidene)-2-(2,6-diisopropyl-4-(naphthalen-2-yl)phenyl) acetamide], 1 to 5 µM.

Staying with this experiment, now noted: Table B2; 2% fetal bovine serum; class symbols; read-out: hTHP-1 IC50 (Average IC50 of compounds in hTHP-1 assay).
In the case of `CC(C)c1cc(C#N)cc(C(C)C)c1CC(=O)N=S(N)(=O)c1nc(CO)c(C(C)(C)O)s1` (single isomer, unassigned) [Example 386, (S) or (R)-N-(amino(4-(hydroxymethyl)-5-(2-hydroxypropan-2-yl)thiazol-2-yl)(oxo)-λ^6-sulfaneylidene)-2-(4-cyano-2,6-diisopropylphenyl)acetamide], the IC50 lay in the range of 5 to 30 µM.
